Target: T1, Protein tyrosine phosphatase 1B (PTP1B) (Homo sapiens, UniProt P18031)
T1 construct: gene PTPN1; recombinant human His-PTP1B protein
T1 sequence (P18031 1-435): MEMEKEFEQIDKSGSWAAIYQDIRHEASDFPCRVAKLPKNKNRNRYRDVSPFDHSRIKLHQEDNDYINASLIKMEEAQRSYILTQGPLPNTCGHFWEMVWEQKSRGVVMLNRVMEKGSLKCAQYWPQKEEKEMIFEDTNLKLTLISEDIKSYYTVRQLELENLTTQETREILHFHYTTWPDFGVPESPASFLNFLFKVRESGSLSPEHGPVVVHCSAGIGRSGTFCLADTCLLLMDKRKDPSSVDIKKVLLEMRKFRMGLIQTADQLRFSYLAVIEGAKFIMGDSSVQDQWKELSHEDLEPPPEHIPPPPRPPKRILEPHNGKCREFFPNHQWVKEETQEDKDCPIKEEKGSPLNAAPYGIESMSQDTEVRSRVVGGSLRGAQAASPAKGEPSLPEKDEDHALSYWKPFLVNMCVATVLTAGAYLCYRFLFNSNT
Assay: pNPP phosphatase assay with recombinant His-PTP1B, absorbance at […] nm
Type: biochemical

Q: For `CCCCCCCCCCCCCCOc1ccccc1NC(=O)c1ccccc1C(=O)O` [CX08005], which IC50 is on record?
A: 750 ± 70 nM
